Test [1] relates to cholesterol oxidase. The experiment in a line: Activation of cholesterol oxidase by surface-active compounds. The format is biochemical. The settings on record: for activation of cholesterol oxidase: result in words; for appropriate concentration range of surface-active compound for activation: too small an amount gives no activation, too large denatures the enzyme. An excerpt:
In addition, other surface-active substances with lipophilic and hydrophilic properties which contain at least one hydroxyl group, can also be used. Examples of such compounds include ethanol, butyl-diglycol and hexyleneglycol.
The appropriate concentration range, as well as the optimum concentration, can be experimentally determined for all appropriate surface-active agents.

In test [2] the test system is cholesterol oxidase. The experiment in a line: Determination of cholesterol in serum with detergent-free cholesterol oxidase, extinction at 240 nm. The format is biochemical. The settings on record: 0.4% in 0.5 M potassium phosphate buffer pH 7.5, 0.1 U enzyme; without surface-active agent 15 minutes were required. As for the experimental part:
0.05 ml. of serum were added to 10 ml. 0.5 M potassium phosphate buffer of pH 7.5 which contained 0.4% hydroxypolyethoxydodecane. The extinction (E1) was read off at 240 nm in a suitable spectrophotometer and the reaction started with 0.02 ml. (0.1 U) of storage-stable cholesterol oxidase, freed from traces of detergent, in 1 M aqueous ammonium sulfate solution. After 3 minutes, the extinction (E2) was read off. The concentration of the cholestenone formed and thus of the cholesterol was given by the difference between the first and second readings, having regard to the molar extinction coefficients for […] at 240 nm. The measurement of a typical sample gave 62 mg.% free cholesterol and 167 mg.% total cholesterol (after saponification).
A comparative determination but without the addition of the surface-active agent required a reaction time of 15 minutes.

Test [3] has as its system cholesterol oxidase. The note with it: 1 M ammonium sulfate, 33° C. As for the experimental part: The experiments were carried out with an octyl-phenol-ethylene oxide adduct.

This note sets out measurements from patent US4164448A, “Activation of cholesterol oxidase for cholesterol assay” (Boehringer Mannheim GmbH, priority 1973, dated 1979).

Where two headings read alike, the source gives them in different places.

For `CO` [methanol], in the test on cholesterol oxidase [1], the “activation of cholesterol oxidase” value is “no activation”.
On to `OC1CCCCC1` [cyclohexanol], for which, in the test with cholesterol oxidase [1], the “activation of cholesterol oxidase” value is reported as “no activation”.
As for hydroxypolyethoxydodecane, the “appropriate concentration range of surface-active compound for activation” value (“appropriate concentration range” for short) in the test on cholesterol oxidase [1] is 0.15 to 0.6 wt.%. The “reaction time of the cholesterol determination” value in the test with cholesterol oxidase [2] is 3 min.
Consider octyl-phenol-ethylene oxide adduct, for which the “Activity of cholesterol oxidase in %, referred to freshly prepared enzyme” value is given as 60% in the test with cholesterol oxidase [3] (detergent 0.02%, storage period 10 days); 40% in the test on cholesterol oxidase [3] (detergent 0.02%, storage period 22 days); 7% in the test on cholesterol oxidase [3] (detergent 0.05%, storage period 10 days); 1% with cholesterol oxidase [3] (detergent 0.05%, storage period 22 days); 3% in the test with cholesterol oxidase [3] (detergent 0.6%, storage period 10 days); 1% in the test on cholesterol oxidase [3] (detergent 0.6%, storage period 22 days). The “Activity of cholesterol oxidase in %, referred to freshly prepared enzyme” value in the test on cholesterol oxidase [3] (detergent amount not printed (column between 0.05% and 0.6%), storage period 10 days) is listed as 7%; in the test on cholesterol oxidase [3] (detergent amount not printed (column between 0.05% and 0.6%), storage period 22 days), 1%. In the test on cholesterol oxidase [1], the “appropriate concentration range” value was in the range of 0.03 to 0.1 wt.%.
Take `OCCO` [ethylene glycol]: the “activation of cholesterol oxidase” value in the test on cholesterol oxidase [1] is reported as “no activation”.
For `C[C@H](CCC(=O)O)[C@H]1CC[C@H]2[C@@H]3CC[C@@H]4C[C@H](O)CC[C@]4(C)[C@H]3C[C@H](O)[C@]12C` [sodium desoxycholate], the “appropriate concentration range” value with cholesterol oxidase [1] is reported as 0.03 to 0.05 wt.%.
On to desoxycholates, for which the “activation of cholesterol oxidase” value in the test on cholesterol oxidase [1] was “Similarly good results”.
“polyoxyethylene derivatives of sorbitol anhydrides”: the “appropriate concentration range” value in the test on cholesterol oxidase [1] is recorded as 0.15 to 0.6 wt.%.
For the compound `OCC(O)CO` [glycerol], the “activation of cholesterol oxidase” value with cholesterol oxidase [1] was “no activation”.
